# Source: a melting point compilation (Tetko et al.; mined from patent text by program, amines drawn as free bases though some values may be those of a salt)
row,Structure (SMILES),melting point [°C]
1,O=C1Nc2ccc(C(F)(F)F)cc2C1c1ncnc2nn(C3CCCCC3)cc12 (centres undefined),> 300
2,NC(=S)Nc1ccc(Br)cn1,242 to 243
3,CCn1c2ccccc2c2[nH]c(=O)c3nccn3c21,315
4,"CC(CNC(=O)N(CCN(C)C(=O)OC(C)(C)C)CCC12CC3CC(CC(C3)C1)C2)Cc1ccncc1 (single isomer, unassigned; (+))",123 to 124
5,Cc1cc(C)cc(P(c2cc(C)cc(C)c2)c2cccc3c2-c2c(cccc2P(c2cc(C)cc(C)c2)c2cc(C)cc(C)c2)OCCCO3)c1,232 to 234
6,CC(C)(O)[C@H]1CC[C@H](Cc2cn(-c3ccc(F)cc3)c3ncccc3c2=O)CC1,208 to 209
7,Nc1ccccc1C(=O)c1ccc(F)cc1,125 to 127
8,O=C(OCC1c2ccccc2-c2ccc(S(=O)(=O)O)cc21)ON1C(=O)CCC1=O (centres undefined),140 to 146
9,CCCCCCCCCCCCCCCCCCOCCC(=O)COCc1ccccc1,33 to 34
10,CNC(=O)C(=NOC)c1c(F)cccc1COc1ccccc1C,93
11,CSc1ccc(-c2cccc(-c3nc(C(C)C)[nH]c3-c3cccc(C)n3)c2)cc1,80 to 82
12,O=C(C=c1sc2n(c1=O)Cc1ccccc1N=2)Oc1ccccc1,194 to 195
13,COc1cccc2c1C(=O)c1c(OC)cc(-c3nnn[nH]3)cc1C2=O,262 to 264
14,O=C(CCCC1(c2ccccc2)CC(O)=C(SCc2ccccc2)C(=O)O1)NCc1ccccc1 (centres undefined),48 to 52
15,NC1COC2=CC3=C(OCCC3)C(=O)C21 (centres undefined),> 260
16,CC(C)(C)COc1ccc(NC(=O)c2cccn2-c2ccc(F)cc2)cc1C#N,181 to 182
17,CCOc1sc(C(N)=O)c2c1-c1c(cnn1C)CC2,200 to 202

# Now from value to compound:
row,melting point [°C],Structure (SMILES)
1,135 to 136,O=C(O)COCc1nn(Cc2ccc(F)cc2)c2ccccc12
2,156 to 163,C=CCn1cc(C(=O)OCC)c(=O)c2cc(C(=O)OC)ccc21
3,181 to 182,CC(C)c1cc(C(C)C)c2ncn(/C=C/C(=O)O)c(=O)c2c1
4,249 to 251,O=C1CCCC2=C1C(c1cccc(F)c1)C1=C(CCCC1)N2 (centres undefined)
5,200 to 202,CC1(C)C(=O)Nc2ccc(-c3cccc(C#N)c3)cc21
6,95 to 96,CC(C)c1ccc2nc3ccc(C(=O)OCCCCc4cccnc4)cn3c(=O)c2c1
7,148 to 151,COc1cc2c(cc1OC)C(=O)C(C(=O)C(F)(F)F)CS2 (centres undefined)
8,270 to 273,FC(F)c1nc2ccccc2n1-c1nc(Nc2cnc3ccccc3c2)nc(N2CCOCC2)n1
9,169 to 170,CCCC1=C(C(=O)OCC)C(c2cc(OC)ccc2OC)c2c[nH]nc2N1 (centres undefined)
10,173 to 175,CN(C)c1nc2sc3c(NCCN4CCOCC4)ncnc3c2c2c1CCC(C)(C)C2
11,193,Nc1nc(-c2nn(Cc3ccccc3F)c3ncccc23)nc(N)c1Cc1ccccc1
12,126 to 128,O=[N+]([O-])c1ccc(CS(=O)(=O)CCO)c(CS(=O)(=O)CCO)c1
13,281 to 283,O=c1[nH]nc2n1C=Cc1cc(Cl)ccc1C2
14,90 to 91,C1=Cc2ccccc2C2(CO2)c2ccccc21
15,152 to 154,Cc1ccc(Cl)cc1N1CCCN(C2CCC2)C1=S
16,225 to 227,CCCCn1c(=O)c([N+](=O)[O-])c(NC)c2ccccc21
17,143 to 145,CN1C(=O)CN=C(N2CCC(C)(C)CC2)c2ccccc21
18,233 to 234,COc1ccc(OCc2nc3nccnc3c(=O)[nH]2)cc1
19,144 to 145,COc1ccc(-c2nc(SC(F)(F)CF)[nH]c2-c2ccc(OC)cc2)cc1
20,163 to 165,N#Cc1cnc2cc(F)ccc2c1Cl
21,215,Cc1nc(NC(=O)c2cnn3c(C(F)(F)F)cc(-c4ccc(C(F)(F)F)cc4)nc23)sc1S(=O)(=O)NC(CO)CO
22,326 to 330,O=C(O)c1cc2[nH]c3c(O)cccc3c(=O)n2n1
